In PubChem BioAssay (NCI):
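Following 48 hours of exposure in 96-well plates, responses at five concentrations were used to interpolate endpoints linearly. The concentration for 50% growth inhibition is given as GI50. TGI is the concentration that stops growth completely.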

Experiments:
Assay in all cases: DTP human tumour cell line panel, 48 h
[1] = system: NCI-H460 lung
[2] = system: HOP-62 NSCLC
[3] = system: M14 melanoma
[4] = system: IGROV1 ovarian
[5] = system: BT-549 breast
[6] = system: SK-MEL-28 melanoma
[7] = system: RPMI-8226 leukemia
[8] = system: SR leukemia
[9] = system: CAKI-1 renal
[10] = system: EKVX NSCLC
[11] = system: OVCAR-4 ovarian
[12] = system: T-47D breast
[13] = system: OVCAR-5 ovarian
[14] = system: 786-0 renal
[15] = system: HCC-2998 colon
[16] = system: ACHN renal
[17] = system: OVCAR-3 ovarian
[18] = system: CCRF-CEM leukemia
[19] = system: SN12C renal
[20] = system: HL-60(TB) leukemia
[21] = system: UO-31 renal
[22] = system: A498 renal
[23] = system: SNB-19 CNS
[24] = system: PC-3 prostate
[25] = system: TK-10 renal
[26] = system: SK-MEL-5 melanoma
[27] = system: HCT-15 colon
[28] = system: SF-268 CNS
[29] = system: NCI-H522 lung
[30] = system: MCF7 breast
[31] = system: NCI-H226 lung
[32] = system: RXF 393 renal
[33] = system: HS 578T breast
[34] = system: SF-539 CNS
[35] = system: LOX IMVI melanoma
[36] = system: SNB-75 CNS
[37] = system: MALME-3M melanoma
[38] = system: KM12 colon
[39] = system: MDA-MB-435
[40] = system: OVCAR-8 ovarian
[41] = system: U251 CNS
[42] = system: MOLT-4 leukemia
[43] = system: DU-145 prostate
[44] = system: NCI-H23 lung
[45] = system: NCI/ADR-RES ovarian
[46] = system: K-562 leukemia
[47] = system: SK-MEL-2 melanoma
[48] = system: A549 NSCLC
[49] = system: UACC-62 melanoma
[50] = system: MDA-MB-231 breast
[51] = system: SF-295 CNS
[52] = system: COLO 205 colon
[53] = system: UACC-257 melanoma
[54] = system: SK-OV-3 ovarian
[55] = system: SW-620 colon
[56] = system: HCT-116 colon
[57] = system: HOP-92 NSCLC
[58] = system: HT29 colon

With `O=C(/C(Br)=C/c1ccccc1)c1ccccc1` the GI50 [1] was 17.8 µM, the TGI [1] was 38 µM and the GI50 [2] was 2.29 µM. For the same compound, the TGI [2] was 6.1 µM, the GI50 [3] was 1.36 µM and the TGI [3] was 3.23 µM. The GI50 [4] was 1.66 µM, the TGI [4] was 4.68 µM and the GI50 [5] was 2.08 µM. It also gave a TGI [5] of 4.6 µM, a GI50 [6] of 5.31 µM and a TGI [6] of 23.1 µM. For the same compound, the GI50 [7] was 2.41 µM, the TGI [7] was 7.07 µM and the GI50 [8] was 1.41 µM. For the same compound, the TGI [8] was 8.74 µM, the GI50 [9] was 1.34 µM and the TGI [9] was 3.39 µM. It also gave a GI50 [10] of 10.6 µM, a TGI [10] of 23.3 µM and a GI50 [11] of 3.79 µM. It also gave a TGI [11] of 16.9 µM, a GI50 [12] of 1.82 µM and a TGI [12] of 4.71 µM. The GI50 [13] was 3.21 µM, the TGI [13] was 9.22 µM and the GI50 [14] was 1.9 µM. The TGI [14] was 3.48 µM, the GI50 [15] was 6.8 µM and the TGI [15] was 19 µM. It also gave a GI50 [16] of 1.22 µM, a TGI [16] of 2.48 µM and a GI50 [17] of 2.2 µM. The TGI [17] was 5.59 µM, the GI50 [18] was 0.39 µM and the TGI [18] was 2.01 µM. The GI50 [19] was 2.34 µM, the TGI [19] was 5.85 µM and the GI50 [20] was 2.22 µM. The TGI [20] was 6.47 µM, the GI50 [21] was 1.36 µM and the TGI [21] was 3.35 µM. The GI50 [22] was 15.5 µM, the TGI [22] was 30 µM and the GI50 [23] was 13.1 µM. For the same compound, the TGI [23] was 26.1 µM, the GI50 [24] was 3.11 µM and the TGI [24] was 10.5 µM. It also gave a GI50 [25] of 3.38 µM, a TGI [25] of 14.6 µM and a GI50 [26] of 4.96 µM. It also gave a TGI [26] of 17.3 µM, a GI50 [27] of 1.02 µM and a TGI [27] of 2.47 µM. For the same compound, the GI50 [28] was 4.56 µM, the TGI [28] was 16.7 µM and the GI50 [29] was 0.396 µM. It also gave a TGI [29] of 2.23 µM, a GI50 [30] of 4.79 µM and a TGI [30] of 52.9 µM. For the same compound, the GI50 [31] was 3.5 µM, the TGI [31] was 14.1 µM and the GI50 [32] was 1.43 µM. It also gave a TGI [32] of 2.85 µM, a GI50 [33] of 8.12 µM and a TGI [33] of 52.4 µM. For the same compound, the GI50 [34] was 2.12 µM, the TGI [34] was 4.72 µM and the GI50 [35] was 0.433 µM. For the same compound, the TGI [35] was 1.59 µM, the GI50 [36] was 10.6 µM and the TGI [36] was 24.2 µM. The GI50 [37] was 1.75 µM, the TGI [37] was 3.9 µM and the GI50 [38] was 7.54 µM. The TGI [38] was 21.4 µM, the GI50 [39] was 1.96 µM and the TGI [39] was 4.67 µM. The GI50 [40] was 2.75 µM, the TGI [40] was 10.2 µM and the GI50 [41] was 1.83 µM. For the same compound, the TGI [41] was 4.4 µM, the GI50 [42] was 2.23 µM and the TGI [42] was 6.95 µM. It also gave a GI50 [43] of 1.77 µM, a TGI [43] of 3.95 µM and a GI50 [44] of 2.71 µM. It also gave a TGI [44] of 8.38 µM, a GI50 [45] of 2.24 µM and a TGI [45] of 6.48 µM. The GI50 [46] was 2.23 µM, the TGI [46] was 9.28 µM and the GI50 [47] was 3.17 µM. It also gave a TGI [47] of 7.38 µM, a GI50 [48] of 14.2 µM and a TGI [48] of 28.5 µM. The GI50 [49] was 1.94 µM, the TGI [49] was 3.81 µM and the GI50 [50] was 2.44 µM. It also gave a TGI [50] of 5.12 µM, a GI50 [51] of 11.8 µM and a TGI [51] of 25.9 µM. The GI50 [52] was 1.09 µM, the TGI [52] was 2.41 µM and the GI50 [53] was 1.86 µM. The TGI [53] was 4.49 µM, the GI50 [54] was 16 µM and the TGI [54] was 34.6 µM. For the same compound, the GI50 [55] was 1.63 µM, the TGI [55] was 3.9 µM and the GI50 [56] was 1.64 µM. The TGI [56] was 3.12 µM, the GI50 [57] was 1.87 µM and the TGI [57] was 4.28 µM.

Work on `N#CSc1c[nH]c2cccc(/C=C/C(=O)/C=C(/C=C/c3cccc4[nH]cc(SC#N)c34)OB(F)F)c12` yielded a GI50 [1] of 1.12 µM, a TGI [1] of 6.13 µM and a GI50 [2] of 3.16 µM. For the same compound, the TGI [2] was 17.1 µM, the GI50 [3] was 0.558 µM and the TGI [3] was 3.08 µM. For the same compound, the GI50 [4] was 0.448 µM, the TGI [4] was 4.36 µM and the GI50 [5] was 1.26 µM. It also gave a TGI [5] of 3.86 µM, a GI50 [6] of 0.342 µM and a TGI [6] of 1.49 µM. For the same compound, the GI50 [7] was 0.351 µM, the TGI [7] was 30 µM and the GI50 [8] was 0.345 µM. It also gave a TGI [8] of over 100 µM, a GI50 [9] of 0.887 µM and a TGI [9] of 8.62 µM. For the same compound, the GI50 [10] was 0.916 µM, the TGI [10] was 5.81 µM and the GI50 [11] was 0.338 µM. It also gave a TGI [11] of 3.95 µM, a GI50 [12] of 0.358 µM and a TGI [12] of 6.2 µM. It also gave a GI50 [13] of 1.81 µM, a TGI [13] of 6.91 µM and a GI50 [14] of 0.344 µM. It also gave a TGI [14] of 2.06 µM, a GI50 [15] of 2.59 µM and a TGI [15] of 6.89 µM. It also gave a GI50 [16] of 0.389 µM, a TGI [16] of 1.72 µM and a GI50 [17] of 0.243 µM. The TGI [17] was 0.586 µM, the GI50 [18] was 0.315 µM and the TGI [18] was 17.6 µM. For the same compound, the GI50 [19] was 0.495 µM, the TGI [19] was 3.72 µM and the GI50 [20] was 0.293 µM. It also gave a TGI [20] of 5.25 µM, a GI50 [21] of 0.391 µM and a TGI [21] of 1.55 µM. For the same compound, the GI50 [22] was 2.01 µM, the TGI [22] was 6.97 µM and the GI50 [23] was 2.33 µM. It also gave a TGI [23] of 14.7 µM, a GI50 [24] of 0.419 µM and a TGI [24] of 4.19 µM. For the same compound, the GI50 [25] was 0.961 µM, the TGI [25] was 5.94 µM and the GI50 [26] was 1.23 µM. For the same compound, the TGI [26] was 2.92 µM, the GI50 [27] was 0.315 µM and the TGI [27] was 1.49 µM. For the same compound, the GI50 [28] was 1.07 µM, the TGI [28] was 6.44 µM and the GI50 [29] was 0.207 µM. The TGI [29] was 0.501 µM, the GI50 [30] was 0.459 µM and the TGI [30] was 3.63 µM. For the same compound, the GI50 [31] was 2.21 µM, the TGI [31] was 5.9 µM and the GI50 [32] was 0.226 µM. The TGI [32] was 0.516 µM, the GI50 [33] was 2.17 µM and the TGI [33] was over 58.6 µM. It also gave a GI50 [34] of 1.18 µM, a TGI [34] of 4.27 µM and a GI50 [35] of 0.243 µM. The TGI [35] was 0.677 µM, the GI50 [36] was 2.18 µM and the TGI [36] was 7.55 µM. It also gave a GI50 [37] of 0.272 µM, a TGI [37] of 0.824 µM and a GI50 [38] of 1.04 µM. It also gave a TGI [38] of 3.98 µM, a GI50 [39] of 0.27 µM and a TGI [39] of 0.869 µM. It also gave a GI50 [40] of 0.355 µM, a TGI [40] of over 59.5 µM and a GI50 [41] of 0.366 µM. The TGI [41] was 4.25 µM, the GI50 [42] was 0.302 µM and the TGI [42] was 3.14 µM. The GI50 [43] was 1.1 µM, the TGI [43] was 2.63 µM and the GI50 [44] was 0.755 µM. It also gave a TGI [44] of 3.29 µM, a GI50 [45] of 4.3 µM and a TGI [45] of over 100 µM. The GI50 [46] was 0.297 µM, the TGI [46] was 1.38 µM and the GI50 [47] was 2.4 µM. It also gave a TGI [47] of 5.9 µM, a GI50 [48] of 0.991 µM and a TGI [48] of 10.2 µM. For the same compound, the GI50 [58] was 0.386 µM, the TGI [58] was 2.26 µM and the GI50 [49] was 0.628 µM. The TGI [49] was 2.56 µM, the GI50 [50] was 0.442 µM and the TGI [50] was 1.57 µM. The GI50 [51] was 2.68 µM, the TGI [51] was 9.16 µM and the GI50 [52] was 0.293 µM. The TGI [52] was 0.856 µM, the GI50 [53] was 1.98 µM and the TGI [53] was 10.9 µM. It also gave a GI50 [54] of 9.74 µM, a TGI [54] of 41.5 µM and a GI50 [55] of 0.351 µM. It also gave a TGI [55] of 1.33 µM, a GI50 [56] of 0.244 µM and a TGI [56] of 0.742 µM. For the same compound, the GI50 [57] was 0.309 µM and the TGI [57] was 1.45 µM.
